Results on two compounds are retold here after patent publication US20230084899A1, “COMBINATION OF AN AHR-INHIBITOR AND AN PD1-INHIBITOR ANTIBODY AND ITS USE IN THE TREATMENT OF CANCER” (Bayer Aktiengesellschaft, priority 2019, published 2023).

The subject of one experiment is tumor cell proliferation. As to the kind of experiment: Anti-proliferative effect of the combination (tumor cell proliferation). Type of experiment: cell-based.
The test system of experiment [1] is human T cell/DC co-cultures. The experiment in a line: Mixed lymphocyte reaction: IL-2 in supernatants of matured DC / T cell co-culture. Type of experiment: cell-based. On the procedure: Whole blood samples from healthy donors were collected and PBMCs were isolated using density gradient centrifugation for 15 min at 800×g at room temperature with Biocoll separation solution (density […]; Biochrom, #L6115). The supernatants were discarded and the PBMCs were poured into 50 ml tubes, washed with PBS without Ca^+/Mg^+, counted and resuspended in MACS separation buffer (Miltenyi Biotec). The monocytes were isolated from PBMCs using the Monocyte Isolation Kit II (Miltenyi Biotec, Cat #130-091-153) according to manufacturer's instructions. On the day of co-culture, T cells were isolated from PBMC preparations obtained from whole blood of different donors using the Pan T Cell Isolation Kit (Auto MACS Pro, Cat #130-096-535).
Monocytes were differentiated into monocyte-derived dendritic cells (moDCs) using 100 ng/ml GM-CSF (R&D Systems, Cat #215-GM) and 100 ng/ml rhIL4 (R&D Systems, Cat #204-IL) for 6 days at 37° C., 5% CO2. To produce mature DCs, moDCs were further matured for 24 h with IFNγ (R&D Systems, Cat #285-IF) and lipopolysaccharide (LPS) from Escherichia coli O127: B8 (Sigma, Cat #L4516).
For the co-culture assay, matured DCs and T cells from different donors were used. The cells were seeded in 96-well plates (Costar, Cat #3585) at 1×10^4 cells/well for matured DCs and 5×10^4 cells/well for T cells. A serial dilution of component A (3× dilution steps) in combination with anti-programmed cell death 1 antibody (as component B: aPD-1; 1 μg/ml pembrolizumab or 3 μg/ml nivolumab) or respective concentrations of hIgG4 (isotype control TPP10747, PPB11084) was added and the cells were incubated for 3 days at 37° C., 5% CO2.
IL-2 cytokine levels were measured in aliquots of supernatants using the Human IL-2 Tissue Culture kit (Meso Scale Discovery, Cat #K151AHB-4).

Entries after “also recorded” stand apart in the source; their conditions may differ.

As to `C[C@@H](CO)NC(=O)c1cc(-c2ccc(Cl)cc2)nn(-c2cnn(C)c2)c1=O` [6-(4-Chlorophenyl)-N-[(2S)-1-hydroxypropan-2-yl]-2-(1-methyl-1H-pyrazol-4-yl)-3-oxo-2,3-dihydropyridazine-4-carboxamide], in the experiment on tumor cell proliferation (in combination with nivolumab), the “inhibiting tumor cell proliferation” value is given as “synergistic effects”. Further, in the experiment with tumor cell proliferation (in combination with pembrolizumab), the “anti-proliferative effect / inhibiting tumor cell proliferation” value is recorded as “very strong synergy; also recorded: synergistic effects”.

As for `C[C@@H](CO)NC(=O)c1cc(-c2ccc(Cl)cc2)nn(-c2cnn(C)c2)c1=O` [component A, 6-(4-Chlorophenyl)-N-[(2S)-1-hydroxypropan-2-yl]-2-(1-methyl-1H-pyrazol-4-yl)-3-oxo-2,3-dihydropyridazine-4-carboxamide], in experiment [1] (alone and in combination with PD1 antibodies), the “T cell activity (observed by IL-2 production)” value is reported as “enhances T cell activity”. Further, the “IL-2 production from T cells” value in experiment [1] (component A alone (component A+hIgG4 isotype control), serial dilution, 3 days co-culture) was “dose-dependent response”. Also, the “IL-2 levels, combination compared to aPD-1 or component A alone” value is listed as “higher IL-2 levels” in experiment [1] (component A serial dilution + 1 μg/ml pembrolizumab, 3 days co-culture (FIG. 1)) and “higher IL-2 levels” in experiment [1] (component A serial dilution + 3 μg/ml nivolumab, 3 days co-culture (FIG. 2)).
